What was measured:
Type in all cases: cell-based, human
[1] = system: 3-cell line panel MCF7, NCI-H460, SF-268; test: DTP screen, overall activity call over the 3-cell line panel; set-up: key to Activity: Active: Compounds which reduce the growth of any one of the cell lines to a value of +32% or less (negative numbers indicate cell kill) are generally considered to be sufficiently “active”; settings: for Activity: 1.00 E-04 Molar; for antineoplastic activity in the DTP screen: three test cell lines
Description: (§1) For the past 10 years, the Developmental Therapeutics Program (DTP) of the National Cancer Institute (NCI) has used an in vitro model consisting of 60 human tumor cell lines as the primary anticancer screen (see, J. Natl. Cancer Inst., 83:757-766, (1991)). […] In view of this, the DTP now uses a 3-cell line panel consisting of the MCF7(breast carcinoma) cell line, the NCI-H460 (lung carcinoma) cell line, and the SF-268 (CNS glioma) cell line as its primary anticancer (antineoplastic) assay. This 3-cell line, single-dose assay has been in use by DTP for several years for the evaluation of combinatorial libraries and has proven to be an effective pre-screen for compounds with antineoplastic activity.
(§2) In the DTP protocol, each cell line is inoculated and preincubated on a microtiter plate. Test agents are then added at a single concentration and the culture incubated for 48 hours. End-point determination are made with sulforhodamine B, a protein-binding dye. Results for each test agent are reported as the percent of growth of the treated cells normalized against the growth of the corresponding untreated control cells, i.e., a reported value of +100% refers to cell growth equivalent to that of the corresponding untreated control cells. […] Compounds which reduce the growth of any one of the cell lines to a value of +32% or less (negative numbers indicate cell kill) are generally considered to be sufficiently “active” to be selected for further evaluation by NCI in a full panel of 60 tumor cell lines over a 5-log dose range.
(§3) Two poly((aminofunctional alkoxy)-alkylsiloxane) compounds were tested for antineoplastic activity in the DTP screen. The two compounds (linear poly((aminofunctional alkoxy)-alkylsiloxanes) 5 and 3) were prepared according to the procedures described in Examples 2 and 5 above, respectively. […] This compound includes 1,3-N,N-dimethylamino-2-propoxy groups.

[2] = system: SF-268 (CNS glioma) cell line; test: DTP 3-cell line single-dose antineoplastic pre-screen (sulforhodamine B); settings: 1.00 E-04 Molar, 48 hours, growth relative to untreated control cells; negative = cell kill
Description: as §1, §2, §3

[3] = system: MCF7 (breast carcinoma) cell line; test: as above; settings: 1.00 E-04 Molar, 48 hours, growth relative to untreated control cells; negative = cell kill
Description: as §1, §2, §3

[4] = system: NCI-H460 (lung carcinoma) cell line; test: as above; settings: 1.00 E-04 Molar, 48 hours, growth relative to untreated control cells; negative = cell kill
Description: as §1, §2, §3

Structure (SMILES)	Activity [1]	antineoplastic activity in the DTP screen [1]	Growth Percentages (CNS) SF-268 [2] [%]	Growth Percentages (Breast) MCF7 [3] [%]	Growth Percentages (Lung) NCI-H460 [4] [%]
C[Si](C)(C)O[Si](C)(OCCCN)O[Si](C)(OCCCN)O[Si](C)(C)C (stereo not shown) [Compound 3, bis-(trimethylsiloxy)-1,3-dimethyl-1,3-(3-amino-1-propoxy)siloxane]	Inactive	inactive	–	–	–
CN(C)CC(CN(C)C)O[Si](C)(O[Si](C)(C)C)O[Si](C)(OC(CN(C)C)CN(C)C)O[Si](C)(C)C (stereo not shown) [Compound 5, bis-(trimethylsiloxy)-1,3-dimethyl, 1,3-(1,3-(N,N-dimethylamino)-2-propoxy)siloxane]	Active	showed antineoplastic activity against all three test cell lines	−24	−5	−16
